The CheMixHub drug solubility set

Assay: xn = mol fraction of the nth substance listed, in the solute-free solvent

CCOC(=O)OC1=C(c2cc(C)ccc2C)C(=O)NC12CCC(OC)CC2 (configuration not stated) + CCO + O
solubility (g/100 g solution)
Conditions | 278.15 K | 283.15 K | 288.15 K | 293.15 K | 298.15 K | 303.15 K | 308.15 K | 313.15 K | 318.15 K
x2 = 0.2 | 0.0705 | 0.151 | 0.226 | 0.365 | 0.51 | 0.748 | 1.02 | 1.33 | 1.82
x2 = 0.4 | 1.44 | 1.85 | 2.31 | 2.96 | 3.91 | 5.06 | 6.59 | 8.52 | 11.1
x2 = 0.6 | 2.83 | 3.59 | 4.57 | 5.78 | 7.18 | 9.11 | 11.5 | 14.3 | 17.8
x2 = 0.8 | 3.14 | 3.95 | 4.97 | 6.19 | 7.77 | 9.63 | 12 | 15 | 18.7

CC(S)C(=O)NCC(=O)O (configuration not stated) + CCCCO + CC#N
solubility (g/100 g solution)
Conditions | 273.15 K | 278.15 K | 283.15 K | 288.15 K | 293.15 K | 298.15 K | 303.15 K | 308.15 K | 313.15 K | 318.15 K
x2 = 0.1216 | 3.87 | 4.43 | 4.99 | 5.57 | 6.21 | 6.84 | 7.49 | 8.19 | 8.94 | 9.75
x2 = 0.2697 | 4.29 | 4.96 | 5.69 | 6.46 | 7.28 | 8.08 | 8.92 | 9.79 | 10.7 | 11.9
x2 = 0.4538 | 4.43 | 4.94 | 5.58 | 6.3 | 7.26 | 8.29 | 9.41 | 10.6 | 11.8 | 13
x2 = 0.689 | 4.42 | 5.29 | 6.26 | 7.32 | 8.38 | 9.51 | 10.7 | 12 | 13.3 | 14.7

CCOc1ccccc1C(N)=O + CO + CC#N
solubility (g/100 g solution)
Conditions | x2 = 0.1 | x2 = 0.2 | x2 = 0.3 | x2 = 0.4 | x2 = 0.5 | x2 = 0.6 | x2 = 0.7 | x2 = 0.8 | x2 = 0.9
293.15 K | 3.86 | 5.1 | 6.26 | 7.41 | 8.25 | 8.88 | 8.99 | 8.83 | 8.26
298.15 K | 4.9 | 6.33 | 7.81 | 9.11 | 10.1 | 11 | 11.1 | 10.7 | 10.1
303.15 K | 6.47 | 8.36 | 10.2 | 11.5 | 12.8 | 13.6 | 13.7 | 13.4 | 12.6
308.15 K | 8.43 | 10.8 | 12.9 | 14.4 | 15.6 | 16.5 | 16.4 | 16.3 | 15.1
313.15 K | 10.8 | 13.5 | 16 | 18.1 | 19.3 | 20.4 | 20.4 | 19.8 | 18.5
318.15 K | 13.7 | 16.8 | 19.7 | 21.9 | 23.4 | 24.4 | 24.5 | 24 | 22.7
323.15 K | 17.3 | 21 | 24 | 26.4 | 28.3 | 29.2 | 29.3 | 28.5 | 27.1

FC(F)(F)c1cccnc1Cl + CCOC(C)=O + CCCCO
solubility (g/100 g solution)
Conditions | 263.15 K | 268.15 K | 273.15 K | 278.15 K | 283.15 K | 288.15 K | 293.15 K | 298.15 K | 303.15 K
x2 = 0.2518 | 27.4 | 32.6 | 37.9 | 43.8 | 50.9 | 57.7 | 64.8 | 71.6 | 77.6
x2 = 0.4023 | 33.5 | 38.3 | 42.5 | 49.6 | 54.8 | 61.4 | 68 | 74.3 | 80.5
x2 = 0.5999 | 37.2 | 42.5 | 47.4 | 53.5 | 60.2 | 66.6 | 72.6 | 78.8 | 84.3
x2 = 0.7998 | 42.4 | 47.7 | 52.6 | 59 | 64.3 | 70.8 | 76.8 | 82.4 | 87.4

CCCSc1ccc2[nH]c(NC(=O)OC)nc2c1 + CCO + O
solubility (g/100 g solution)
Conditions | x2 = 0.0416 | x2 = 0.0891 | x2 = 0.1435 | x2 = 0.2068 | x2 = 0.2811 | x2 = 0.3697 | x2 = 0.4771 | x2 = 0.61 | x2 = 0.7787
288.95 K | 0.00065 | 0.00225 | 0.0048 | 0.00531 | 0.0142 | 0.031 | 0.0476 | 0.0657 | 0.0669
293.15 K | 0.00113 | 0.00279 | 0.0063 | 0.00878 | 0.0211 | 0.0396 | 0.0538 | 0.0706 | 0.0729
297.15 K | 0.00141 | 0.0033 | 0.00736 | 0.0137 | 0.025 | 0.0476 | 0.0643 | 0.0856 | 0.0933
301.25 K | 0.00181 | 0.00417 | 0.00932 | 0.0172 | 0.0324 | 0.0565 | 0.0753 | 0.0966 | 0.11
305.15 K | 0.00257 | 0.00518 | 0.0114 | 0.0207 | 0.04 | 0.0682 | 0.0957 | 0.124 | 0.137
309.15 K | 0.00328 | 0.00624 | 0.0127 | 0.025 | 0.048 | 0.0834 | 0.118 | 0.162 | 0.169
313.05 K | 0.00395 | 0.00729 | 0.0156 | 0.0318 | 0.0594 | 0.104 | 0.149 | 0.204 | 0.208
317.25 K | 0.00594 | 0.00852 | 0.0188 | 0.0386 | 0.0732 | 0.12 | 0.185 | 0.242 | 0.25
